# Measurements published in ChEMBL document CHEMBL5108045, “Identification and Utilization of a Chemical Probe to Interrogate the Roles of PIKfyve in the Lifecycle of β-Coronaviruses” (J Med Chem, 2022).
# Activity calls are given as the source filed them. No cut-off for these calls is given here.
# Legend:
# [1] = target: T1, 1-phosphatidylinositol 3-phosphate 5-kinase (Homo sapiens, UniProt Q9Y2I7); assay: Inhibition of PIKFYVE in HEK293 cells by NanoBRET assay; type: cell-based
# [2] = target: T1, 1-phosphatidylinositol 3-phosphate 5-kinase; assay: Inhibition of human GST tagged PIKFYVE (1493 to end residues) expressed in baculovirus-infected Sf9 cells using PI(3)P:PS as substrate incubated for 60 mins in presence of ATP by ADP-Glo assay
# Murine hepatitis virus = assay: microbe, parasite or virus in culture; details: Murine coronavirus, Astrocytoma delayed brain tumor (DBT) cell
# Description: Antiviral activity against MHV-nLuc infected in DBT cells assessed as effect on cell viability by LDH assay
# Calu-3 [3] = assay: Inhibition of lentivirus pseudotyped with SARS-CoV-2 spike glycoprotein uptake in human Calu-3 cells at 1 uM preincubated for 1 hr prior to viral infection for 12 hrs by fluorescence based analysis; type: functional, cell-based
# SH-SY5Y = assay: Induction of lysosome dysfunction in human SH-SY5Y cells at 5 uM incubated for 24 hrs by lyso-tracker red DND-99 based confocal microscopic method; type: functional, cell-based
# Caco-2 = assay: (§1) Inhibition of His-6 tagged SARS-CoV-2 spike protein uptake in human Caco-2 cells at 1 uM incubated for 1 hr by fluorescence based analysis relative control; type: functional
# Calu-3 [4] = assay: (§2) Inhibition of His-6 tagged SARS-CoV-2 spike protein uptake in human Calu-3 cells at 1 uM incubated for 1 hr by fluorescence based analysis relative control; type: functional
# SARS-CoV-2 = assay: microbe, parasite or virus in culture; details: Severe acute respiratory syndrome coronavirus 2, A549-ACE2
# Description: Antiviral activity against SARS-CoV-2 infected in human A549-ACE2 cells assessed as effect on cell viability pretreated with compound for 1 hr followed by viral infection measured after 2 hrs by Nano-Glo reagent based LDH assay
# [5] = target: Microtubule-associated serine/threonine-protein kinase 1 (Homo sapiens) (UniProt Q9Y2H9); assay: Inhibition of wild-type human partial length MAST1 (S346 to V730 residues) expressed in mammalian expression system assessed as residual activity at 1 uM by Kinomescan method relative to control
# [6] = target: Mitogen-activated protein kinase kinase kinase kinase 5 (Homo sapiens) (UniProt Q9Y4K4); assay: Inhibition of human wild type MAP4K5 assessed as remaining activity at 1 uM by MRC screening assay relative to control
# [7] = target: Serine/threonine-protein kinase TAO3 (Homo sapiens) (UniProt Q9H2K8); assay: Inhibition of human wild type partial length TAOK3 (M1 to T316 residues) expressed in mammalian expression system assessed as remaining activity at 1 uM by Kinomescan assay relative to control
# [8] = target: Mitogen-activated protein kinase kinase kinase 2 (Homo sapiens) (UniProt Q9Y2U5); assay: Inhibition of wild-type human partial length MAP3K2 (S315 to H619 residues) expressed in mammalian expression system assessed as residual binding level at 1 uM by Kinomescan method relative to control
# [9] = target: Serine/threonine-protein kinase PAK 4 (Homo sapiens) (UniProt O96013); assay: Inhibition of human wild type PAK4 assessed as remaining activity at 1 uM by MRC screening assay relative to control
# [10] = target: Tyrosine-protein kinase JAK2 (Homo sapiens) (UniProt O60674); assay: Inhibition of human wild type JAK2 (JH1) domain assessed as remaining activity at 1 uM by MRC screening assay relative to control
# Tyrosine-protein kinase JAK2 (Homo sapiens), sequence (O60674 whole entry, the tested form may be a part): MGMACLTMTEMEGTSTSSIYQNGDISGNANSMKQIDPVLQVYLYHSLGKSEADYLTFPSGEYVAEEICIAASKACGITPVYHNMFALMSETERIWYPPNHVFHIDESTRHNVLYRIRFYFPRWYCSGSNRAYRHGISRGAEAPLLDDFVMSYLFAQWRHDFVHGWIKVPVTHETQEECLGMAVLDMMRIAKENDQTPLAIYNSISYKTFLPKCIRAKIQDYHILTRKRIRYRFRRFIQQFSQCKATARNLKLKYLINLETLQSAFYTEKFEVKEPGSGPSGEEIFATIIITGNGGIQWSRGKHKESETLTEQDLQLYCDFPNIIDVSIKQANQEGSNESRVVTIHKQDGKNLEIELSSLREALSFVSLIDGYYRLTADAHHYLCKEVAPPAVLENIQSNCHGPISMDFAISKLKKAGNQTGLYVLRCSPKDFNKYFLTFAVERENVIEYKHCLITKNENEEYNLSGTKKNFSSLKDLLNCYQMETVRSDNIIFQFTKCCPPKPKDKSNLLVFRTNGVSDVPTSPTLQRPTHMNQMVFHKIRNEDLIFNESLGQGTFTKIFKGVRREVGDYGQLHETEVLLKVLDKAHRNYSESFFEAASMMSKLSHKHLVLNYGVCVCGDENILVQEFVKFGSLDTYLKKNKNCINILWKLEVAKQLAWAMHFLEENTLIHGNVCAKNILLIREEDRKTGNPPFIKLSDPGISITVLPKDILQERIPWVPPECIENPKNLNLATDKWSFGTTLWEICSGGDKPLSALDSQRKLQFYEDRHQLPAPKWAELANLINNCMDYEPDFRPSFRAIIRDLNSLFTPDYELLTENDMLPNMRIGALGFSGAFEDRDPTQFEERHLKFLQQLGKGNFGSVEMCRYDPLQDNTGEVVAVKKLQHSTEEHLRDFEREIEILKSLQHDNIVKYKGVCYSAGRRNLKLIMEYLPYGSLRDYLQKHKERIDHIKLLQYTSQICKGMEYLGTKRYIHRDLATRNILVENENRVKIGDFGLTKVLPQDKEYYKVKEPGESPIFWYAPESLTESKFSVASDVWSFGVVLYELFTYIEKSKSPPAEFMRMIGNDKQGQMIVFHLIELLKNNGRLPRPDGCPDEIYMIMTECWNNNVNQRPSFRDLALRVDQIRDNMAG
# [11] = target: Dual specificity mitogen-activated protein kinase kinase 4 (Homo sapiens) (UniProt P45985); assay: Inhibition of human wild type partial length MEK4 (S84 to D399 residues) expressed in mammalian expression system assessed as remaining activity at 1 uM by Kinomescan assay relative to control
# Dual specificity mitogen-activated protein kinase kinase 4 (Homo sapiens), sequence (P45985 whole entry, the tested form may be a part): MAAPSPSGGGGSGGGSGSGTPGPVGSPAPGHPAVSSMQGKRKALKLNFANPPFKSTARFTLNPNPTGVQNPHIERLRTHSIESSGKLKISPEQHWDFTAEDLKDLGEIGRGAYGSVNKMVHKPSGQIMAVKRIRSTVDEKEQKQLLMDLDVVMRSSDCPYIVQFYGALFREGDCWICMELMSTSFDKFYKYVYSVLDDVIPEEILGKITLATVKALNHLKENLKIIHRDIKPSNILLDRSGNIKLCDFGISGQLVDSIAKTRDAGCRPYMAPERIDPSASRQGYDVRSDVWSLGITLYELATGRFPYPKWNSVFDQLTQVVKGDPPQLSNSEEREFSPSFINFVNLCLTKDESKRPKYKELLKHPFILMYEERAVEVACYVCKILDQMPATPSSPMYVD
# [12] = target: Mitogen-activated protein kinase kinase kinase 3 (Homo sapiens) (UniProt Q99759); assay: Inhibition of human wild type partial length MAP3K3 (E320 to Y626 residues) expressed in mammalian expression system assessed as remaining activity at 1 uM by Kinomescan assay relative to control
# [13] = target: Dual serine/threonine and tyrosine protein kinase (Homo sapiens) (UniProt Q6XUX3); assay: Inhibition of human wild type full length RIPK5 (M1 to T929 residues) expressed in mammalian expression system assessed as remaining activity at 1 uM by Kinomescan assay relative to control
# [14] = target: Serine/threonine-protein kinase PAK 6 (Homo sapiens) (UniProt Q9NQU5); assay: Inhibition of human wild type PAK6 assessed as remaining activity at 1 uM by MRC screening assay relative to control
# [15] = target: Serine/threonine-protein kinase TAO1 (Homo sapiens) (UniProt Q7L7X3); assay: Inhibition of human wild type TAOK1 assessed as remaining activity at 1 uM by MRC screening assay relative to control
# [16] = target: Phosphatidylinositol 4-phosphate 5-kinase type-1 gamma (Homo sapiens) (UniProt O60331); assay: Inhibition of human wild type full length PIP5K1C (M1 to T668 residues) expressed in mammalian expression system assessed as remaining activity at 1 uM by Kinomescan assay relative to control
# [17] = target: Mitogen-activated protein kinase kinase kinase 19 (Homo sapiens) (UniProt Q56UN5); assay: Inhibition of wild-type human partial length YSK4 (T1019 to H1328 residues) expressed in mammalian expression system assessed as residual binding level at 1 uM by Kinomescan method relative to control
# [18] = target: Phosphatidylinositol 5-phosphate 4-kinase type-2 gamma (Homo sapiens) (UniProt Q8TBX8); assay: Inhibition of human wild type full length PIP5K2C (M1 to A421 residues) expressed in mammalian expression system assessed as remaining activity at 1 uM by Kinomescan assay relative to control
# [19] = target: Mitogen-activated protein kinase kinase kinase kinase 2 (Homo sapiens) (UniProt Q12851); assay: Inhibition of human wild type partial length MAP4K2 (M1 to G318 residues) expressed in mammalian expression system assessed as remaining activity at 1 uM by Kinomescan assay relative to control
# [20] = target: Citron Rho-interacting kinase (Homo sapiens) (UniProt O14578); assay: Inhibition of wild-type human partial length CIT (M68 to E432 residues) expressed in bacterial expression system assessed as residual binding level at 1 uM by Kinomescan method relative to control
# [21] = target: Serine/threonine-protein kinase TAO2 (Homo sapiens) (UniProt Q9UL54); assay: Inhibition of human wild type partial length TAOK2 (M1 to A320 residues) expressed in mammalian expression system assessed as remaining activity at 1 uM by Kinomescan assay relative to control
# Serine/threonine-protein kinase TAO2 (Homo sapiens), sequence (Q9UL54 whole entry, the tested form may be a part): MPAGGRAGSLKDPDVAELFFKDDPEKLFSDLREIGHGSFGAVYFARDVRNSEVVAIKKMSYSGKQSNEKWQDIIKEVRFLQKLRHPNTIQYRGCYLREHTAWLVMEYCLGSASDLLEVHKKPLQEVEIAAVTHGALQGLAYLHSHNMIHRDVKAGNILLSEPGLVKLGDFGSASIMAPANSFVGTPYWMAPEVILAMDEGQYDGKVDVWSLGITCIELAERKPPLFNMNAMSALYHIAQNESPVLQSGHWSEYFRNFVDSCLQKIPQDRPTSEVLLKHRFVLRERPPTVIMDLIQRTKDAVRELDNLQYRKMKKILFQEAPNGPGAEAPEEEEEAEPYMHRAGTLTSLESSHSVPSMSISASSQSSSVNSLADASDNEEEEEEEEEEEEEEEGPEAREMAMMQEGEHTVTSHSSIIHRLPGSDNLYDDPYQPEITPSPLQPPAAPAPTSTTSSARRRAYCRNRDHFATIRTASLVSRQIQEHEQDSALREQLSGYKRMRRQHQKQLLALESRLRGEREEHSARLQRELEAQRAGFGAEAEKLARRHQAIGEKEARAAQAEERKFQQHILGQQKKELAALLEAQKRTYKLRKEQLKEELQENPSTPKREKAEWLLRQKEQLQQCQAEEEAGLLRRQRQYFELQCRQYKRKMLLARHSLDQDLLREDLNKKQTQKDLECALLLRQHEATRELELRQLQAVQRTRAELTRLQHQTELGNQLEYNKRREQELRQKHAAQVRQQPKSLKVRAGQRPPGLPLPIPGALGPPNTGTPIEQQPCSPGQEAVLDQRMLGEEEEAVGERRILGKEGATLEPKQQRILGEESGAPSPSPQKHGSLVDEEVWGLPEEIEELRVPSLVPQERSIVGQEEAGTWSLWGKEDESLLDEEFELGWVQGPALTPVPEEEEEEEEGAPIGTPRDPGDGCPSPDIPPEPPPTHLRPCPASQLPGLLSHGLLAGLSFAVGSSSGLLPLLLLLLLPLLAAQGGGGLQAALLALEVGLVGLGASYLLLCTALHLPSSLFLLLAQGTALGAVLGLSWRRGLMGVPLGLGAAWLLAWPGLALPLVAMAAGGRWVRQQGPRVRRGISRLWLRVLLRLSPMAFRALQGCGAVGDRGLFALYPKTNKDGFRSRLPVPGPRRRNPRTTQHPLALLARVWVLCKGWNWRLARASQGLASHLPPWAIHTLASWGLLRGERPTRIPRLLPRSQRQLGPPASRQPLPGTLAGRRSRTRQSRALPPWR
# [22] = target: Serine/threonine-protein kinase PAK 5 (Homo sapiens) (UniProt Q9P286); assay: Inhibition of human wild type PAK7 expressed in Escherichia coli assessed as remaining activity using RRRLSFAEPG peptide substrate at 1 uM by MRC screening assay relative to control
# [23] = target: cAMP-dependent protein kinase catalytic subunit PRKX (Homo sapiens) (UniProt P51817); assay: Inhibition of human wild type partial length PRKX (M1 to F358 residues) expressed in bacterial expression system assessed as remaining activity at 1 uM by Kinomescan assay relative to control
# [24] = target: Myosin light chain kinase family member 4 (Homo sapiens) (UniProt Q86YV6); assay: Inhibition of human wild type […] length MYLK4 (V79 to S380 residues) expressed in bacterial expression system assessed as remaining activity at 1 uM by Kinomescan assay relative to control
# [25] = Microsomal stability in CD-1 mouse liver microsomal assessed as parent compound remaining preincubated for 5 mins followed by NADPH addition measured after 30 mins by LC-TOFMS; type: ADME, subcellular; details: liver microsomes, time 35 min, read-out: Stability
# [26] = as §1; type: functional
# [27] = as §2; type: functional
# T1 sequence (Q9Y2I7 whole entry): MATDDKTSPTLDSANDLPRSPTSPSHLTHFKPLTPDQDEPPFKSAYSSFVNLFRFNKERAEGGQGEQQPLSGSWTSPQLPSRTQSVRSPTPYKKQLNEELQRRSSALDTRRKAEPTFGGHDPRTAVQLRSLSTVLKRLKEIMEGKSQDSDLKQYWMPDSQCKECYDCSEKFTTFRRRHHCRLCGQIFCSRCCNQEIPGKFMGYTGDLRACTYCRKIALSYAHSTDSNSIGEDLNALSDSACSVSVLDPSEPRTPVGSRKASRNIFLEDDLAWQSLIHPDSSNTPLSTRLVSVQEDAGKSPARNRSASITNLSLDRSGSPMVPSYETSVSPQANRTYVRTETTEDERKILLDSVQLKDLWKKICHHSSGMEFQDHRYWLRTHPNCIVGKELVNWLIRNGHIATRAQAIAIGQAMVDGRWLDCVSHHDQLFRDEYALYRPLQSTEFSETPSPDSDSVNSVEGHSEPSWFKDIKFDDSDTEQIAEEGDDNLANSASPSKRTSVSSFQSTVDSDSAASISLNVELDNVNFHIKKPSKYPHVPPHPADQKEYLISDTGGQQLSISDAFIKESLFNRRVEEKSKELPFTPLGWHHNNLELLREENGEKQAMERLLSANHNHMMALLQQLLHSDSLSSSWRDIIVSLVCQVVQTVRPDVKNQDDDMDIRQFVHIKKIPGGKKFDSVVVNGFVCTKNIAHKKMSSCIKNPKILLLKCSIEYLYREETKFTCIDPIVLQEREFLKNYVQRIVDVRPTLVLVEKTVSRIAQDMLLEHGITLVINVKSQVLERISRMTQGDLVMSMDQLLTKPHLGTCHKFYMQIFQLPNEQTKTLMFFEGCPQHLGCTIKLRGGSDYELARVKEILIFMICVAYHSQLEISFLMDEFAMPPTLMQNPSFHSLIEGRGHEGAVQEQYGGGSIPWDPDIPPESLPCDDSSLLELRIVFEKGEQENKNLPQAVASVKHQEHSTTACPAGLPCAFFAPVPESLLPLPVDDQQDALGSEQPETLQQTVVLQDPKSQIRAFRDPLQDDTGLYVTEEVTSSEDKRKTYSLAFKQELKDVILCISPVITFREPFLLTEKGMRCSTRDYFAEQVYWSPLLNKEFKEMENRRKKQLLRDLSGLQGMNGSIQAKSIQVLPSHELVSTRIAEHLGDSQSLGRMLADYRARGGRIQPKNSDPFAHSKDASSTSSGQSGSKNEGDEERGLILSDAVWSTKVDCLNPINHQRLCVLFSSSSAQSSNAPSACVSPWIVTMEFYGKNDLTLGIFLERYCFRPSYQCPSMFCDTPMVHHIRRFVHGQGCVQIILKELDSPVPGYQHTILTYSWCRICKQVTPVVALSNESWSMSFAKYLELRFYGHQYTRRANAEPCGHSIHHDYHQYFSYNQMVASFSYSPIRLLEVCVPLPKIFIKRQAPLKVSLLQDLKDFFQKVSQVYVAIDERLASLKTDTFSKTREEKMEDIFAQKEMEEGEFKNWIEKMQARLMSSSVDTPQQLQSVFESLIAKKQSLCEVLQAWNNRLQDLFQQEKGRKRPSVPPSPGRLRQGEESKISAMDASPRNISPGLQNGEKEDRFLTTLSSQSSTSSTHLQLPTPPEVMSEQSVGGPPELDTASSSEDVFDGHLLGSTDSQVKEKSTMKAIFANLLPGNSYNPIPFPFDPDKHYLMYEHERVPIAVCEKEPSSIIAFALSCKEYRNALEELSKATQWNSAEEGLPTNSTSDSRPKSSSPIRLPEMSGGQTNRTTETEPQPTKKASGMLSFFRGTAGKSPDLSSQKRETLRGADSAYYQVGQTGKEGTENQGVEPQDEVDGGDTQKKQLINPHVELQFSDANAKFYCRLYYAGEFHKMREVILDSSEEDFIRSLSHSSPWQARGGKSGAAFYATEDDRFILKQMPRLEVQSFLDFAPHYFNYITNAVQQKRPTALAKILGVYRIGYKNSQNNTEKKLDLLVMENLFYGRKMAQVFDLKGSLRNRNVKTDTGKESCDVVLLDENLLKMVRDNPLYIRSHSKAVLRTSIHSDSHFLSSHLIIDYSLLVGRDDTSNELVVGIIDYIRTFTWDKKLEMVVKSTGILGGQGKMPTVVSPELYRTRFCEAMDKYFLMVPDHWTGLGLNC
SMILES,IC50 [1] [nM],IC50 [2] [nM],IC50 (Murine hepatitis virus) [nM],IC50 (Murine hepatitis virus; read-out: pIC50 (converted)) [nM],other results
Cn1cncc1C#Cc1ccc2[nH]c3c(c2c1)-c1nc(N)ncc1CCCC3,> 10000,290,–,–,–
Cn1cc(-c2ccc3[nH]c4c(c3c2)-c2nc(N)ncc2CCC4)cn1,1560,26,666,661,–
Nc1ncc2c(n1)-c1c([nH]c3ccc(-c4ccc(F)cc4)cc13)CCCC2,2560,–,–,–,–
Cc1cccc(/C=N/Nc2cc(N3CCOCC3)n3nc(-c4ccncc4)cc3n2)c1,–,–,40.4,40.7,–
Nc1ncc2c(n1)-c1c([nH]c3ccc(C#Cc4ccncc4)cc13)CCC2,885,22,485,490,–
Cc1cccc(/C=N/Nc2cc(N3CCOCC3)nc(OCCc3ccccn3)n2)c1,–,–,–,–,inhibition (Calu-3 [3]): Active; Activity (SH-SY5Y): Active; inhibition (Caco-2): Active; inhibition (Calu-3 [4]): Active
CN(C)CC#Cc1ccc2[nH]c3c(c2c1)-c1nc(N)ncc1CC3,123,–,–,–,–
Cn1cncc1C#Cc1ccc2[nH]c3c(c2c1)-c1nc(N)ncc1CC3,> 10000,77,8050,8130,–
Nc1ncc2c(n1)-c1c([nH]c3ccc(-c4ccc(F)cc4)cc13)CCC2,11.4,9.3,71,70.8,inhibition (Calu-3 [3]): Active; Activity (SH-SY5Y): Active; IC50 (SARS-CoV-2): 73.3 nM
Nc1ncc2c(n1)-c1c([nH]c3ccc(C#CC4CC4)cc13)CC2,300,–,–,–,–
Nc1ncc2c(n1)-c1c([nH]c3ccc(C#CC4CC4)cc13)CCCC2,700,75,1800,1780,–
Nc1ncc2c(n1)-c1c([nH]c3ccc(-c4ccc(F)cc4)cc13)CC2,380,8.2,713,708,–
CC(C)C(O)C#Cc1ccc2[nH]c3c(c2c1)-c1nc(N)ncc1CCC3 (stereo not given),45.7,–,–,–,–
CCC(CC)COC(=O)[C@H](C)N[P@](=O)(OC[C@H]1O[C@@](C#N)(c2ccc3c(N)ncnn23)[C@H](O)[C@@H]1O)Oc1ccccc1,–,–,–,–,IC50 (SARS-CoV-2): 86.4 nM
Nc1ncc2c(n1)-c1c([nH]c3ccc(C4CC4)cc13)CCCC2,–,–,> 10000,> 10000,Activity [5]: 32%; IC50 (SARS-CoV-2): > 10000 nM
CC(C)(O)C#Cc1ccc2[nH]c3c(c2c1)-c1nc(N)ncc1CCC3,–,–,–,–,Activity [6]: < 10%; Activity [7]: < 10%; Activity [8]: < 10%; Activity [9]: < 10%; Activity [10]: < 10%; Activity [11]: < 10%; Activity [12]: < 10%; Activity [13]: < 10%; Activity [14]: < 10%; Activity [15]: < 10%; Activity [16]: < 10%; Activity [17]: < 10%; Activity [18]: < 10%; Activity [19]: < 10%; Activity [20]: < 10%; Activity [21]: < 10%; Activity [22]: < 10%; Activity [23]: < 10%; Activity [24]: < 10%
Cn1cc(-c2ccc3[nH]c4c(c3c2)-c2nc(N)ncc2CC4)cn1,4970,34,5350,5370,–
CN(C)CC#Cc1ccc2[nH]c3c(c2c1)-c1nc(N)ncc1CCCC3,683,430,–,–,–
CC(C)(O)C#Cc1ccc2[nH]c3c(c2c1)-c1nc(N)ncc1CC3,220,–,–,–,–
Nc1ncc2c(n1)-c1c([nH]c3ccc(C#Cc4ccncc4)cc13)CCCC2,5290,580,–,–,–
CC(C)(O)C#Cc1ccc2[nH]c3c(c2c1)-c1nc(N)ncc1CCCC3,2450,61,8470,8510,–
CN(C)CC#Cc1ccc2[nH]c3c(c2c1)-c1nc(N)ncc1CCC3,–,–,–,–,inhibition (Calu-3 [3]): Active; remaining at 0.5 h [25]: 12.6%; Activity (SH-SY5Y): Active; inhibition at 1 µM [26]: > 91%; inhibition at 1 µM [27]: > 75%
CC(C)C(O)C#Cc1ccc2[nH]c3c(c2c1)-c1nc(N)ncc1CC3 (stereo not given),1170,–,1920,1910,–
Nc1ncc2c(n1)-c1c([nH]c3ccc(C#Cc4ccncc4)cc13)CC2,2980,–,–,–,–
